SMILES strings stand for the structures. In brackets after ≈: the same amount, converted by molar mass.

For this data set the following is noted: buffer; pH 7.4; 200.0 µM.
A word on the kinetic solubility: it is solubility judged after dilution from a stock solution rather than from solid. The compound `CCc1ccc(C(=O)NC(C(=O)NCC2CCCO2)C(C)C)cc1` (centres undefined) came in with a solubility (kinetic) of over 49.9 µg/mL.

Take `OCCNC(=S)NCc1ccccc1`: the solubility (kinetic) came out at 31.5 µg/mL (≈ 150 µM).

`NC(=O)C1CCN(C(=O)c2ccc3ccccc3c2)CC1` had a kinetic solubility of over 42.4 µg/mL.

As to `COc1ccc(OC)c(S(=O)(=O)N2CCCC(C(=O)NCc3ccccn3)C2)c1` (centres undefined), the kinetic solubility is over 62.9 µg/mL.

Compound `COc1ccc(NC(=O)NCCN2CCCCC2)cc1` gave a kinetic solubility of 33.9 µg/mL (≈ 122 µM).

With `Cc1ccc(C)c(C(=O)CSc2nc(C)cc(=O)[nH]2)c1`, the kinetic solubility turned out to be 27.5 µg/mL (≈ 95.4 µM).

The compound `COc1ccc(C(=O)NCc2cc(C)nc3ccccc23)cc1OC` yielded a kinetic solubility of 39.6 µg/mL (≈ 118 µM).

Take `O=C(Cc1ccc(Br)cc1)NCCc1ccccc1`: the kinetic solubility stood at 7.5 µg/mL (≈ 23.6 µM).

`Cc1ccc(C(=O)NCc2nc3ccccc3[nH]2)o1` had a kinetic solubility of over 38.3 µg/mL.

In turn, `CCCCOc1ccc(CC2CCC(=O)NC2=O)cc1` (centres undefined) registered a kinetic solubility of 10.2 µg/mL (≈ 37 µM).

For `NC(=O)CC1C(=O)N(c2ccccc2)C(=S)N1NC(=O)c1ccccc1` (centres undefined), the kinetic solubility was over 55.3 µg/mL.

In the case of `CCOc1cc2c(cc1OC)C(NC(=O)c1ccco1)CC2=O` (centres undefined), the kinetic solubility is over 47.3 µg/mL.

`OCCCNC(=S)Nc1ccc(Br)cc1Cl`: the kinetic solubility was over 48.5 µg/mL.

With `O=c1c(Cc2c(F)cccc2Cl)c(O)ccn1C1CC1`, the kinetic solubility was over 44.1 µg/mL.

Regarding `Cc1ccsc1/C=N/NC(=O)C1CC(=O)N(c2ccc(F)cc2)C1` (centres undefined), the kinetic solubility was over 51.8 µg/mL.

For `CC1(C)CN2C(=O)c3ccccc3C2(C)S1` (centres undefined), the solubility (kinetic) was over 35 µg/mL.

On to `COc1ccccc1-c1cc(-c2ccc(O)cc2)nc(N)c1C#N`, for which the kinetic solubility was 3.7 µg/mL (≈ 11.7 µM).

`CN(C)C(=O)C(NC(=O)c1ccccc1)=C(Cl)Cl` registered a kinetic solubility of 42 µg/mL (≈ 146 µM).

As for `CCNC(=O)COc1ncnc2scc(-c3ccc(F)cc3)c12`, the kinetic solubility is over 49.7 µg/mL.

`O=C(/C=C/c1ccccc1)OCN1C(=O)c2ccccc2C1=O`: the kinetic solubility turned out to be 2.6 µg/mL (≈ 8.46 µM).

Consider `COc1ccc(Nc2nc(N)nc(CN3CCC(C)CC3)n2)cc1`, for which the kinetic solubility is over 49.3 µg/mL.

In the case of `O/N=C\c1ccc2noc(-c3ccc(Cl)cc3)c2c1`, the solubility (kinetic) is under 0.3 µg/mL.

With `Cn1c(=O)c2c(nc(Oc3ccccc3N)n2C)n(C)c1=O`, the solubility (kinetic) is over 45.2 µg/mL.

Consider `CCOC(=O)c1ccc(NS(=O)(=O)c2cn(C)cn2)cc1`, for which the solubility (kinetic) is over 46.4 µg/mL.

`Cc1ccc(NS(=O)(=O)c2cccc3cccnc23)c(Cl)c1` came in with a solubility (kinetic) of 1.1 µg/mL (≈ 3.31 µM).

`CC1Cc2ccccc2N1CC(=O)NC(=O)NC1CCCC1` (centres undefined): the solubility (kinetic) was found to be 6.9 µg/mL (≈ 22.9 µM).

`CC1Sc2ccc(C(=O)NCc3ccccn3)cc2NC1=O` (centres undefined) showed a kinetic solubility of 45.6 µg/mL (≈ 146 µM).

`CC(C)NC(=O)CCc1nc2cccnc2n1-c1ccccc1` yielded a kinetic solubility of 43.3 µg/mL (≈ 140 µM).

`O=C(NCCc1ccccc1)C1COc2ccccc2O1` (centres undefined) gave a solubility (kinetic) of over 42.5 µg/mL.

The compound `CC(C(=O)N(C)C)N1c2cccc3cccc(c23)S1(=O)=O` (centres undefined) displayed a solubility (kinetic) of 19.9 µg/mL (≈ 65.4 µM).

For `CCOC(=O)CC(NC(=O)c1ccccc1)c1ccc(OC)cc1` (centres undefined), the solubility (kinetic) was found to be 36.4 µg/mL (≈ 111 µM).

`CC(C(c1cccs1)c1c(N)n(C)c(=O)n(C)c1=O)[N+](=O)[O-]` (centres undefined): the solubility (kinetic) is over 48.7 µg/mL.

Regarding `O=C(NCc1ccccc1)c1nc[nH]c1C(=O)NCc1ccccc1`, the kinetic solubility came out at 1.1 µg/mL (≈ 3.29 µM).

Compound `COCc1cc(=O)[nH]c(SCC(=O)c2ccccc2)n1` gave a kinetic solubility of over 43.6 µg/mL.

`CCN1C(=O)/C(=C\N(C)C)S/C1=N\S(=O)(=O)c1ccccc1` returned a solubility (kinetic) of 49.3 µg/mL (≈ 145 µM).

Consider `COC(=O)C(NC(C)=O)(Nc1cccc(C)n1)C(F)(F)F` (centres undefined), for which the solubility (kinetic) was over 45.8 µg/mL.

On to `COc1cc(C(NC(C)=O)NC(C)=O)ccc1OCc1ccccc1`, for which the kinetic solubility is over 51.4 µg/mL.

Compound `CCOc1ccccc1NC(=O)NC(=O)N(C)S(C)(=O)=O` came in with a solubility (kinetic) of 18 µg/mL (≈ 57.1 µM).

With `Cc1ccccc1NC(=O)COC(=O)c1cc(C)n(C2CC2)c1C`, the kinetic solubility was 5.6 µg/mL (≈ 17.2 µM).

Regarding `CCCCNS(=O)(=O)c1cc2c3c(c1)CCN3C(=O)CC2`, the solubility (kinetic) was 44.3 µg/mL (≈ 144 µM).

In the case of `Cl.c1ccc(CNCc2ccco2)cc1`, the kinetic solubility was 33.5 µg/mL.

With `C=CCN(c1nc(C)cc(OC)n1)S(=O)(=O)c1ccccc1`, the kinetic solubility was 19.4 µg/mL (≈ 60.7 µM).

In the case of `O=c1c2ccccc2nc(Cc2ccccc2)n1-c1cccc(O)c1`, the kinetic solubility stood at 6 µg/mL (≈ 18.3 µM).

As to `CCNC(=O)Cn1cc(C(F)(F)F)cc(Cl)c1=O`, the solubility (kinetic) was over 42.4 µg/mL.

Take `O=C(Nc1sc2c(c1C(=O)O)CCCC2)c1ccc(F)cc1`: the kinetic solubility was 41.2 µg/mL (≈ 129 µM).

For `O=C(O)/C=C/c1ccc(Oc2ncccn2)cc1`, the kinetic solubility was over 36.3 µg/mL.

In the case of `CN(C)C(=O)c1ccc(NC(=O)c2sccc2-c2ccccc2)cc1`, the kinetic solubility was 49.1 µg/mL (≈ 140 µM).

For `CC(C)(C)c1ccc(C(CC(=O)O)NC(=O)CSc2ccccc2)cc1` (centres undefined), the solubility (kinetic) is over 55.7 µg/mL.

For the compound `Cc1[nH]c2ccccc2c1C(=O)CSC(=S)N1CCOCC1`, the solubility (kinetic) was 2.4 µg/mL (≈ 7.18 µM).

As to `O=C(COC(=O)c1cccc(OC(F)F)c1)Nc1ncccn1`, the solubility (kinetic) was determined as 30.2 µg/mL (≈ 93.4 µM).

In the case of `O=C(Cc1c[nH]c2ccccc12)NCc1ccccc1F`, the solubility (kinetic) worked out at 42.3 µg/mL (≈ 150 µM).

`COc1ccc(CNC(=O)c2ccc[nH]2)cc1Cl` registered a solubility (kinetic) of over 39.7 µg/mL.

Take `COc1ccc(NC(=S)N2CCC(Cc3ccccc3)CC2)cc1`: the solubility (kinetic) is 4.7 µg/mL (≈ 13.8 µM).

With `CSCCC(=O)Nc1nc(-c2ccccn2)cs1`, the solubility (kinetic) is over 41.9 µg/mL.

The compound `O=[N+]([O-])c1ccc(N2CCN(c3ccc(O)cc3)CC2)cn1` gave a solubility (kinetic) of over 45 µg/mL.

Take `Cc1cc(OCCCC(=O)NCCc2ccccn2)ccc1Cl`: the kinetic solubility was over 49.9 µg/mL.

Take `O=C1NC2(CCCCC2)C(=O)N1CC(=O)N1CCc2ccccc21`: the kinetic solubility amounted to 10.6 µg/mL (≈ 32.4 µM).

In turn, `CC(C)(C)C1COc2ccccc2N1C(=O)c1cccc(Cl)c1` (centres undefined) yielded a solubility (kinetic) of under 0.7 µg/mL.

For `Cn1cc(/C=C(\C#N)C(=O)Nc2ccccc2O)c2ccccc21`, the solubility (kinetic) is under 0.2 µg/mL.

In turn, `CCCC(=O)N=c1sc2c(OC)ccc(OC)c2n1C` yielded a kinetic solubility of under 0.3 µg/mL.

In turn, `CCC(Oc1ccccc1)C(=O)NCCCN1CCOCC1` (centres undefined) came in with a kinetic solubility of over 46 µg/mL.

The compound `Cc1cc(=O)oc2cc(OC(C)C(=O)NC3CCCC3)ccc12` (centres undefined) yielded a kinetic solubility of 44.6 µg/mL (≈ 141 µM).

`O=C(O)C1CCN(S(=O)(=O)c2ccc(Cl)s2)CC1` came in with a kinetic solubility of over 46.5 µg/mL.

`CC1=C([N+](=O)[O-])C(c2ccccc2)NC(=O)N1` (centres undefined): the solubility (kinetic) was over 35 µg/mL.

In turn, `COc1ccc(C(=O)/C=C/Nc2ccccn2)c(OC)c1` yielded a kinetic solubility of 4.2 µg/mL (≈ 14.8 µM).

Regarding `N#Cc1ccc(COC(=O)c2ccccn2)cc1`, the kinetic solubility stood at 30 µg/mL (≈ 126 µM).

For the compound `CCCCC1CCC(C(=O)OC(C)C(=O)Nc2ccc(NC(C)=O)cc2)CC1` (centres undefined), the kinetic solubility was 9 µg/mL (≈ 23.2 µM).

`COc1ccc2oc(C(=O)OCC(=O)NC3CC3)c(C)c2c1` yielded a solubility (kinetic) of 10.3 µg/mL (≈ 34 µM).

Consider `CC(NS(=O)(=O)c1ccccc1)C(=O)NCCc1ccccn1` (centres undefined), for which the kinetic solubility is over 50 µg/mL.

In turn, `S=c1[nH]c2cc(Cl)c3cccnc3c2o1` displayed a kinetic solubility of over 35.5 µg/mL.

In turn, `O=C(Nc1ccccc1C(=O)Nc1ccccn1)c1cc(F)c(F)cc1Cl` returned a solubility (kinetic) of under 0.3 µg/mL.

The compound `O=C(NCc1csc2ccccc12)Nc1cc(Cl)cc(Cl)c1` yielded a solubility (kinetic) of 2.1 µg/mL (≈ 5.98 µM).

The compound `OC(CN1CCN(Cc2ccccc2)CC1)c1ccccc1` (centres undefined) came in with a kinetic solubility of over 44.5 µg/mL.

With `COc1ccc2oc(C(=O)OC(C)C(=O)N3C(C)CCCC3C)c(C)c2c1` (centres undefined), the solubility (kinetic) is 8.4 µg/mL (≈ 22.5 µM).

The record behind these values is PubChem BioAssay AID1996.
